Assays:
[1] = system: Splenocytes taken out from a mouse spleen; assay: Experimental Example 2: cytokine (IFN-γ, IL-4) production by mouse splenocytes, sandwich ELISA of culture supernatant; format: cell-based; conditions: reagent 20 ng/mL, 48 hours, FIG. 2; for IFN-γ production amount and IL-4 production amount (cytokine production pattern): mouse splenocytes 2×10^5 cells/well, culture supernatant; for IL-4-predominant cytokine production compared with compound b (OCH): mouse splenocytes
Protocol: Splenocytes taken out from a mouse spleen were prepared using an RPMI1640 culture broth (produced by Sigma) containing 10% Fetal calf serum (FCS) at 2×10^5 cells/well (96-well plate). A reagent was added to this culture broth at a concentration of 20 ng/mL; 2 days later (48 hours later), the cytokine content in the culture supernatant was measured by a sandwich ELISA technique. The test substances used were compound 11, compound 12, compound 13 and compound 48 as obtained in Examples 1 to 3 and Reference Example, with compound a and a compound represented by the following formula (b) (OCH, hereinafter referred to as compound b) used as the comparators.
(§1) These findings confirm that the compounds of the present invention are effective as therapeutic drugs for pathologic conditions that can be ameliorated by IL-4.

[2] = system: Splenocytes taken out from a mouse spleen; conditions: stated as known; cited from earlier work
[3] = system: Splenocytes from a mouse spleen; assay: Experimental Example 1: cytokine (IFN-γ, IL-4) production by mouse splenocytes, sandwich ELISA of culture supernatant; format: cell-based; conditions: mouse splenocytes 2×10^5 cells/well, reagent 40 ng/mL, 72 hours, FIG. 1
Protocol: Splenocytes from a mouse spleen were prepared using an RPMI1640 culture broth (produced by Sigma) containing 10% Fetal calf serum (FCS) at 2×10^5 cells/well (96-well plate). A reagent was added to this culture broth at a concentration of 40 ng/mL; 3 days later (72 hours later), the cytokine content in the culture supernatant was measured by a sandwich ELISA technique. The test substances used were compound 11, compound 12 and compound 13 as obtained in Examples 1 to 3, with a compound represented by the following formula (a) (α-GalCer, hereinafter referred to as “compound a”) used as the comparator.
as §1

CCCCCCCCCCCCCCCCS(=O)(=O)N[C@@H](CO[C@H]1O[C@H](CO)[C@H](O)[C@H](O)[C@H]1O)[C@H](O)[C@H](O)CCCCCCCCCCCCCC [compound 48, (2S,3S,4R)-1-(α-D-galactopyranosyloxy)-2-(hexadecanesulfonylamino)-3,4-octadecanediol]
IFN-γ production amount and IL-4 production amount (cytokine production pattern) [1]: IL-4-predominant cytokine production pattern with smaller amounts of IFN-γ produced | IL-4-predominant cytokine production compared with compound b (OCH) [1]: capable of inducing IL-4-predominant cytokine production to higher extents than compound b

CCCCCCCCCCCCCCCCCCCCCCCC(=O)N[C@@H](COC1OC(CO)C(O)C(O)C1O)[C@H](O)[C@H](O)CCCCC (some centres unmarked) [compound b]
cytokine production pattern as known for the comparator [2]: induces IL-4-predominant cytokine production

CCCCCCCCCCCCCC[C@@H](O)[C@@H](O)[C@H](CO[C@H]1O[C@H](CO)[C@H](O)[C@H](O)[C@H]1O)NS(=O)(=O)c1cccc(C)c1 [compound 13, (2S,3S,4R)-1-(α-D-galactopyranosyloxy)-2-(m-toluenesulfonylamino)-3,4-octadecanediol]
IFN-γ production amount and IL-4 production amount (cytokine production pattern) [3]: IL-4-predominant cytokine production pattern | IFN-γ production amount and IL-4 production amount (cytokine production pattern) [1]: IL-4-predominant cytokine production pattern with smaller amounts of IFN-γ produced | IL-4-predominant cytokine production compared with compound b (OCH) [1]: capable of inducing IL-4-predominant cytokine production to higher extents than compound b

CCCCCCCCCCCCCCCCCCCCCCCCCC(=O)N[C@@H](COC1OC(CO)C(O)C(O)C1O)[C@H](O)[C@H](O)CCCCCCCCCCCCCC (some centres unmarked) [compound a, reference compound]
IFN-γ production amount and IL-4 production amount (cytokine production pattern) [3]: produced both IFN-γ and IL-4 in large amounts | IFN-γ production amount and IL-4 production amount (cytokine production pattern) [1]: produced both IFN-γ and IL-4 in large amounts

CCCCCCCCCCCCCC[C@@H](O)[C@@H](O)[C@H](CO[C@H]1O[C@H](CO)[C@H](O)[C@H](O)[C@H]1O)NS(=O)(=O)c1ccc(C)cc1 [compound 11, (2S,3S,4R)-1-(α-D-galactopyranosyloxy)-2-(p-toluenesulfonylamino)-3,4-octadecanediol]
IFN-γ production amount and IL-4 production amount (cytokine production pattern) [3]: IL-4-predominant cytokine production pattern | IFN-γ production amount and IL-4 production amount (cytokine production pattern) [1]: IL-4-predominant cytokine production pattern with smaller amounts of IFN-γ produced | IL-4-predominant cytokine production compared with compound b (OCH) [1]: capable of inducing IL-4-predominant cytokine production to higher extents than compound b

CCCCCCCCCCCCCC[C@@H](O)[C@@H](O)[C@H](CO[C@H]1O[C@H](CO)[C@H](O)[C@H](O)[C@H]1O)NS(=O)(=O)c1ccccc1C [compound 12, (2S,3S,4R)-1-(α-D-galactopyranosyloxy)-2-(o-toluenesulfonylamino)-3,4-octadecanediol]
IFN-γ production amount and IL-4 production amount (cytokine production pattern) [3]: IL-4-predominant cytokine production pattern | IFN-γ production amount and IL-4 production amount (cytokine production pattern) [1]: IL-4-predominant cytokine production pattern with smaller amounts of IFN-γ produced | IL-4-predominant cytokine production compared with compound b (OCH) [1]: capable of inducing IL-4-predominant cytokine production to higher extents than compound b

— US8163705B2, “Glycolipid and use thereof” (Riken, priority 2006, dated 2012)
